The text below walks through data of patent US20240083857A1, “2-Methyl-Quinazolines” (Bayer Pharma Aktiengesellschaft, priority 2017, published 2024).

The IC50 is the midpoint of a concentration-inhibition curve. Usually inhibition stands for the relative decrease from the control value, in per cent.

Assay [1] deals with K-Ras^G12C : hSOS1 interaction (Homo sapiens, UniProt Q07889). The assay can be described thus: Biochemical assay 1: K-Ras^G12C interaction assay with hSOS1 (HTRF). In kind it is binding. The note with it: for IC50: E-notation values, unit inferred, read-out: Assay 1 (KRAS-SOS interaction) IC50; for inhibition at 20 µM: read-out: Assay 1 (KRAS-SOS Interaction) activity expressed as % inhibition at 20 μM. (In general: Time-resolved FRET reads energy transfer from a long-lived donor to a nearby acceptor.)

In assay [2] the target is human SOS1 (loading of human K-Ras^G12C-GDP with fluorescent GTP-analog) (Homo sapiens, UniProt Q07889). Kind of assay: Biochemical assay 3: K-Ras^G12C activation assay by hSOS1 (HTRF). The note with it: for IC50: E-notation values, unit inferred, read-out: Assay 3 (KRAS-Activation) IC50; for inhibition at 20 µM: read-out: Assay 3 (KRAS-Activation by SOS no GTP) activity expressed as % inhibition at 20 μM, no GTP.

As to `COc1cc2nc(C)nc(NC(C)c3ccc(-c4c(Cl)cccc4CNC(=O)OC(C)(C)C)s3)c2cc1OC` (stereo not shown) [Example 408, tert-butyl [3-chloro-2-(5-{1-[(6,7-dimethoxy-2-methylquinazolin-4-yl)amino]ethyl}thiophen-2-yl)benzyl]carbamate], the IC50 in assay [1] came out at 533 nM; in assay [2], 1020 nM.
As to `COC(=O)c1cc(-c2ccc(C(C)Nc3nc(C)nc4cc(OC)c(OC)cc34)s2)nn1C` (stereo not shown) [Example 237, methyl 3-(5-{1-[(6,7-dimethoxy-2-methylquinazolin-4-yl)amino]ethyl}thiophen-2-yl)-1-methyl-1H-pyrazole-5-carboxylate], the inhibition at 20 µM came out at 31% in assay [1] and 10% in assay [2].
As to `Cc1nc(N[C@H](C)c2cccc(Cl)c2)c2cc(-c3cn[nH]c3)ccc2n1` [Example 405, N-[(1R)-1-(3-chlorophenyl)ethyl]-2-methyl-6-(1H-pyrazol-4-yl)quinazolin-4-amine], the results for the concentration for half-maximal inhibition (IC50) in assay [1] and in assay [2] were 1110 nM and 1310 nM, respectively.
Taken in the same sequence, the figures for `COc1cc2nc(C)nc(NC(C)c3ccc(-c4ccccc4C(O)C(C)C)s3)c2cc1OC` (stereo not shown) [Example 379, 1-[2-(5-{1-[(6,7-dimethoxy-2-methylquinazolin-4-yl)amino]ethyl}thiophen-2-yl)phenyl]-2-methylpropan-1-ol] were 568 nM and 1630 nM.
Taken in the same sequence, the figures for `COc1cc2nc(C)nc(NC(C)c3ccc(-c4c(Cl)cccc4CN)s3)c2cc1OC` (stereo not shown) [Example 409, N-[1-{5-[2-(aminomethyl)-6-chlorophenyl]thiophen-2-yl}ethyl]-6,7-dimethoxy-2-methylquinazolin-4-amine] were 49.2 nM and 31.6 nM.
For `COc1ccc(-c2ccc(C(C)Nc3nc(C)nc4cc(OC)c(OC)cc34)s2)c(C)c1` (stereo not shown) [Example 422, 6,7-dimethoxy-N-{1-[5-(4-methoxy-2-methylphenyl)thiophen-2-yl]ethyl}-2-methylquinazolin-4-amine], the IC50 amounted to 1470 nM in assay [1] and 3600 nM in assay [2].
Taken in the same sequence, the figures for `COc1cc2nc(C)nc(NC(C)c3cc(C)c(-c4ccc(F)cc4CN)s3)c2cc1OC` (stereo not shown) [Example 399, N-(1-{5-[2-(aminomethyl)-4-fluorophenyl]-4-methyl-2-thienyl}ethyl)-6,7-dimethoxy-2-methylquinazolin-4-amine] were 333 nM and 296 nM.
Taken in the same sequence, the figures for `CCCCC(O)c1ccccc1-c1ccc(C(C)Nc2nc(C)nc3cc(OC)c(OC)cc23)s1` (stereo not shown) [Example 377, 1-[2-(5-{1-[(6,7-dimethoxy-2-methylquinazolin-4-yl)amino]ethyl}thiophen-2-yl)phenyl]pentan-1-ol] were 5140 nM and 15100 nM.
Taken in the same sequence, the figures for `Cc1nc(NC(C)c2ccc(-c3ccccc3CN(C)C)s2)c2cc(N3CCC(N(C)C)C3)ccc2n1` (stereo not shown) [Example 418, N-[1-(5-{2-[(dimethylamino)methyl]phenyl}thiophen-2-yl)ethyl]-6-[3-(dimethylamino)pyrrolidin-1-yl]-2-methylquinazolin-4-amine] were 86.6 nM and 45.1 nM.
Regarding `COc1cc2nc(C)nc(NC(C)c3ccc(C4=CCCC4)s3)c2cc1OC` (stereo not shown) [Example 231, N-{1-[5-(cyclopent-1-en-1-yl)thiophen-2-yl]ethyl}-6,7-dimethoxy-2-methylquinazolin-4-amine], the values for the inhibition at 20 µM in assay [1] and in assay [2] were 56% and 24%, respectively.
As to `COc1cc2nc(C)nc(NC(C)c3ccc(-c4ccc(C#N)cc4CN(C)C)s3)c2cc1OC` (stereo not shown) [Example 413, 4-(5-{1-[(6,7-dimethoxy-2-methylquinazolin-4-yl)amino]ethyl}thiophen-2-yl)-3-[(dimethylamino)methyl]benzonitrile], the results for the 50% inhibitory concentration (IC50) in assay [1] and in assay [2] were 223 nM and 213 nM, respectively.
As for `CC(=O)NCCNc1ccc2nc(C)nc(NC(C)c3ccc(-c4ccccc4CN(C)C)s3)c2c1` (stereo not shown) [Example 427, N-{2-[(4-{[1-(5-{2-[(dimethylamino)methyl]phenyl}thiophen-2-yl)ethyl]amino}-2-methylquinazolin-6-yl)amino]ethyl}acetamide], the IC50 worked out at 58.4 nM in assay [1] and 73.9 nM in assay [2].
Taken in the same sequence, the figures for `COc1cc2nc(C)nc(NC(C)c3ccc(-c4ccccc4C(O)Cc4ccccc4)s3)c2cc1OC` (stereo not shown) [Example 376, 1-[2-(5-{1-[(6,7-dimethoxy-2-methylquinazolin-4-yl)amino]ethyl}thiophen-2-yl)phenyl]-2-phenylethanol] were 5460 nM and 17900 nM.
`COc1cc2nc(C)nc(NC(C)c3ccc(-c4ccccc4CN(C)C)s3)c2cc1OC` (single isomer, unassigned) [Example 390, N-[1-(5-{2-[(dimethylamino)methyl]phenyl}thiophen-2-yl)ethyl]-6,7-dimethoxy-2-methylquinazolin-4-amine]: the results for the half-inhibitory concentration (IC50) in assay [1] and in assay [2] were 5000 nM and 12900 nM, respectively.
Take `COc1cc2nc(C)nc(NC(C)c3cc(Cl)c(-c4ccccc4CN(C)C)s3)c2cc1OC` (stereo not shown) [Example 431, N-[1-(4-chloro-5-{2-[(dimethylamino)methyl]phenyl}thiophen-2-yl)ethyl]-6,7-dimethoxy-2-methylquinazolin-4-amine]: the IC50 in assay [1] is 324 nM; in assay [2], 302 nM.
Taken in the same sequence, the figures for `COc1cc2nc(C)nc(NC(C)c3ccc(-c4ccc(C)cc4CN(C)C)s3)c2cc1OC` (stereo not shown) [Example 442, N-[1-(5-{2-[(dimethylamino)methyl]-4-methylphenyl}thiophen-2-yl)ethyl]-6,7-dimethoxy-2-methylquinazolin-4-amine] were 45.3 nM and 45.1 nM.
Take `COc1cc2nc(C)nc(NC(C)c3cc(Cl)c(-c4ccccc4CN)s3)c2cc1OC` (stereo not shown) [Example 430, N-[1-{5-[2-(aminomethyl)phenyl]-4-chlorothiophen-2-yl}ethyl]-6,7-dimethoxy-2-methylquinazolin-4-amine]: the concentration for half-maximal inhibition (IC50) in assay [1] worked out at 594 nM; in assay [2] it was 584 nM.
Taken in the same sequence, the figures for `Cc1nc(NC(C)c2ccc(Br)s2)c2cc(N3CCN(Cc4ccccc4)C(=O)C3)ccc2n1` (stereo not shown) [Example 441, 1-benzyl-4-(4-{[1-(5-bromothiophen-2-yl)ethyl]amino}-2-methylquinazolin-6-yl)piperazin-2-one] were 16100 nM and 15100 nM.
Taken in the same sequence, the figures for `COc1cc2nc(C)nc(NC(C)c3ccc(-c4ccccc4CC(N)=O)s3)c2cc1OC` (stereo not shown) [Example 394, 2-[2-(5-{1-[(6,7-dimethoxy-2-methylquinazolin-4-yl)amino]ethyl}thiophen-2-yl)phenyl]acetamide] were 405 nM and 2290 nM.
For `Cc1nc(N[C@H](C)c2cccc(Cl)c2)c2cc(C(C)(C)O)ccc2n1` [Example 392, 2-(4-{[(1R)-1-(3-chlorophenyl)ethyl]amino}-2-methylquinazolin-6-yl)propan-2-ol], the values for the IC50 in assay [1] and in assay [2] were 338 nM and 1520 nM, respectively.
Taken in the same sequence, the figures for `COc1cc2nc(C)nc(NC(C)c3sc(Br)cc3Cl)c2cc1OC` (stereo not shown) [Example 428, N-[1-(5-bromo-3-chlorothiophen-2-yl)ethyl]-6,7-dimethoxy-2-methylquinazolin-4-amine] were 916 nM and 1020 nM.
Taken in the same sequence, the figures for `Cc1nc(NC(C)c2ccc(Br)s2)c2cc(N3CCN(C)CC3)ccc2n1` (stereo not shown) [Example 416, N-[1-(5-bromothiophen-2-yl)ethyl]-2-methyl-6-(4-methylpiperazin-1-yl)quinazolin-4-amine] were 867 nM and 1140 nM.
In the case of `COc1cc2nc(C)nc(NC(C)c3ccc(=O)[nH]c3)c2cc1OC` (single isomer, unassigned; enantiomer 1) [Example 227, 5-{1-[(6,7-dimethoxy-2-methylquinazolin-4-yl)amino]ethyl}pyridin-2(1H)-one, Enantiomer 1], the inhibition at 20 µM stood at 48% in assay [1] and 34% in assay [2].
For the molecule `Cc1nc(NC(C)c2ccc(-c3ccccc3CN(C)C)s2)c2cc(NS(C)(=O)=O)ccc2n1` (stereo not shown) [Example 438, N-(4-{[1-(5-{2-[(dimethylamino)methyl]phenyl}thiophen-2-yl)ethyl]amino}-2-methylquinazolin-6-yl)methanesulfonamide], the results for the IC50 in assay [1] and in assay [2] were 90.2 nM and 116 nM, respectively.
Taken in the same sequence, the figures for `COc1cc2nc(C)nc(NC(C)c3ccc(-c4ccc(F)cc4CNC(=O)CO)s3)c2cc1OC` (stereo not shown) [Example 382, N-[2-(5-{1-[(6,7-dimethoxy-2-methylquinazolin-4-yl)amino]ethyl}thiophen-2-yl)-5-fluorobenzyl]-2-hydroxyacetamide] were 253 nM and 748 nM.
Taken in the same sequence, the figures for `COc1cc(C)c2nc(C)nc(N[C@H](C)c3cccc(Cl)c3)c2c1` [Example 396, N-[(1R)-1-(3-chlorophenyl)ethyl]-6-methoxy-2,8-dimethylquinazolin-4-amine] were 2240 nM and 3130 nM.
Taken in the same sequence, the figures for `Cc1nc(NC(C)c2ccc(-c3ccccc3CN(C)C)s2)c2cc(NC(=O)N(C)C)ccc2n1` (stereo not shown) [Example 440, 3-(4-{[1-(5-{2-[(dimethylamino)methyl]phenyl}thiophen-2-yl)ethyl]amino}-2-methylquinazolin-6-yl)-1,1-dimethylurea] were 706 nM and 921 nM.
As to `COc1cc2nc(C)nc(NC(C)c3ccc(-c4ccc(Cl)cc4CN)s3)c2cc1OC` (stereo not shown) [Example 398, N-[1-{5-[2-(aminomethyl)-4-chlorophenyl]thiophen-2-yl}ethyl]-6,7-dimethoxy-2-methylquinazolin-4-amine], the IC50 in assay [1] turned out to be 104 nM; in assay [2] it was 72.1 nM.
Taken in the same sequence, the figures for `CNC(=O)Nc1ccc2nc(C)nc(NC(C)c3ccc(-c4ccccc4CN(C)C)s3)c2c1` (stereo not shown) [Example 457, 1-(4-{[1-(5-{2-[(dimethylamino)methyl]phenyl}thiophen-2-yl)ethyl]amino}-2-methylquinazolin-6-yl)-3-methylurea] were 295 nM and 638 nM.
